Assay results published in article PMC11440508, “Dually Labeled Neurotensin NTS1R Ligands for Probing Radiochemical and Fluorescence-Based Binding Assays” (Journal of Medicinal Chemistry, 2024).
“Also recorded” adds a separate entry of the source.

Tests used:
NTS1R = NTS1R (Homo sapiens, UniProt P30989); experiment: Fluorescence anisotropy (FA) equilibrium saturation binding at hNTS1R-displaying BBVs; parameters: NlucC (C-terminal fragment of nanoluciferase, 11 amino acids) (C); made in house; host or cells: Sf9 insect cells, baculovirus (pIMACE-CMVintP10-hNTS1R-Nluc, DH10MultiBac); budded baculovirus particles; conditions: NTS1R-BBV, 27 °C
Description: FA-based NTS1R binding studies with 13 and 18 were performed at hNTS1R displaying budded baculovirus particles (termed BBVs below), which were obtained from Sf9 insect cells following the procedure reported for the preparation of neuropeptide Y Y1R displaying BBVs.[61] The obtained viruses were collected by centrifugation at 1600g for 10 min, and the virus titer was determined with an image-based cell-size estimation assay as described elsewhere.[62] The viruses were amplified using a multiplicity of infection (MOI) between 0.01 and 0.1 until a high-titer baculovirus stock (virus concentration of at least 1.0 × 10^8 infectious viral particles/mL) was acquired. To produce BBV preparations with a high receptor density, Sf9 cells with a density of 1.9 × 10^6 cells/mL were infected with an MOI of 3 and the BBVs were collected by centrifugation 63 h after the infection, when the cell viability was <30%. […]
FA measurements were performed with a Synergy NEO multimode plate reader (BioTek, Winooski, VT) and black, half area, flat bottom polystyrene nonbinding surface (NBS) 96-well plates (product no. 3993; Corning, Corning, NY). Polarizing excitation (530 ± 15 nm) and dual emission (590 ± 17.5 nm) filters with a dichroic mirror were used, allowing the simultaneous detection of parallelly and perpendicularly polarized fluorescence emission after polarizing beam splitter. […]

[1] = Chemical stability in PBS (pH 7.4); type: physicochemical; conditions: PBS pH 7.4, room temperature, up to 48 h, RP-HPLC
Description: The chemical stability of peptides 13 and 18 was investigated in PBS (adjusted to pH 7.4) at 22 °C in the dark. The incubation was started by the addition of 15 μL of a 1 mM stock solution (solvent: DMSO) to 135 μL of PBS to yield a concentration of 100 μM. After periods of 0, 6, 24, and 48 h, an aliquot (25 μL) was removed and added to 25 μL of acetonitrile/0.04% aqueous TFA 1:9 v/v to obtain a peptide solution with a concentration of 50 μM. 20 μL of this solution were subjected to analytical RP-HPLC analysis using the same system and conditions as described under Analytical HPLC with the following gradient: 0–14 min: acetonitrile/0.04% aqueous TFA 10:90–30:70, 14–15 min: 30:70–95:5, 15–20 min: 95:5 (isocratic). A 1:1 mixture of PBS and acetonitrile/0.04% aqueous TFA 1:9 v/v (20 μL) was analyzed to obtain the blank chromatogram.

[2] = Stability in human plasma/PBS 1:2 v/v; type: in vitro ADME; conditions: for % intact compound in plasma: 37 °C; for % intact compound in plasma / remaining at 24 h, 80 μM: 24 h
Description: The proteolytic stabilities of 13 and 18 were investigated in human blood plasma/PBS (136.9 mM NaCl, 2.68 mM KCl, 5.62 mM Na2HPO4, 1.09 mM NaH2PO4, and 1.47 mM KH2PO4, pH 7.4) 1:2 v/v according to a described procedure[38] with the following modifications: 5 mM stock solutions in EtOH/10 mM aqueous HCl 1:1 v/v were used for the addition of the peptides to plasma/PBS 1:2 v/v. As the RP-HPLC purity of 1-methyl-D-Trp, used as internal standard (IS), was <95%, the compound was purified by preparative HPLC to give a purity of >99%. The concentration of the peptides in plasma/PBS 1:2 v/v was 40 μM (recovery determination) or 80 μM (stability tests). Samples were analyzed using the same RP-HPLC system and conditions as described under Analytical HPLC with the following gradient: 0–6 min: acetonitrile/0.04% aqueous TFA 10:90–21:79, 6–12 min: 21:79–40:60, 12–13 min: 40:60–95:5, 13–16 min: 95:5 (isocratic). Data analysis was based on UV detection at 220 nm. Reference samples, representing 100% recovery, were prepared in quadruplicate. Recovery ratios were obtained by dividing the recovery of the peptide by the recovery of IS for each individual sample (n = 4). The obtained recoveries and the recovery ratios are summarized in Table S2, Supporting Information.

[3] = human blood plasma/PBS 1:2 v/v, pH 7.4, 37 °C, read-out: % intact compound in plasma

Chain of NTS1R (P30989 whole entry, the tested form may be a part): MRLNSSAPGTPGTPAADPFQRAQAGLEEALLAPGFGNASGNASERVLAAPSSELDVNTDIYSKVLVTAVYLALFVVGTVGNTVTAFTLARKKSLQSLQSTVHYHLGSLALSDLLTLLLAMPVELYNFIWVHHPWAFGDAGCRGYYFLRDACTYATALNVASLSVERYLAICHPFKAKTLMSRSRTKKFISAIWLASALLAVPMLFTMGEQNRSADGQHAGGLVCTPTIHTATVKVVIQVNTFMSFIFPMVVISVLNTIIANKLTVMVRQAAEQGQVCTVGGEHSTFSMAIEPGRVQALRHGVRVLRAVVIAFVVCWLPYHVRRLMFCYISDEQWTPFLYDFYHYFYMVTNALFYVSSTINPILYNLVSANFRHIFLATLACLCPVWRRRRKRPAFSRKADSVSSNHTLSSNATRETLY

| SMILES | Kd (NTS1R) | chemical stability in PBS [1] | % intact compound in plasma [2] | remaining at 0.5 h, 80 μM ([2]; human blood plasma/PBS 1:2 v/v, pH 7.4, 37 °C, 30 min, read-out: % intact compound in plasma) | remaining at 2 h, 80 μM [2, 3] | remaining at 6 h, 80 μM [2, 3] | remaining at 24 h, 80 μM [2, 3] | remaining at 48 h, 80 μM [2, 3] |
| --- | --- | --- | --- | --- | --- | --- | --- | --- |
| CCC(=O)NCCCCNC(=O)N=C(N)NCCC[C@H](NC(=O)[C@@H]1CCCN1C(=O)[C@@H](NC(=O)CCc1cn(CCCNC(=O)c2ccc(-c3c4ccc(=[N+](C)C)cc-4oc4cc(N(C)C)ccc34)c(C(=O)[O-])c2)nn1)C1CCNCC1)C(=O)N[C@@H](CCCNC(=N)N)C(=O)N1CCC[C@H]1C(=O)N[C@@H](Cc1ccc(O)cc1)C(=O)N[C@H](C(=O)N[C@@H](CC(C)C)C(=O)O)[C@@H](C)CC [Compound 13, N^α-(3-(1-N-((1-Carboxylato-2-(6-(dimethylamino)-3-(dimethyliminio)-3H-xanthen-9-yl)phen-5-yl)1-oxomethyl)aminoprop-3-yl-1H-1,2,3-triazol-4-yl)propanoyl)-2-(piperidin-4-yl)-Gly-Pro-N^ω-[(4-(N-propanoyl)aminobutyl)aminocarbonyl]Arg-Arg-Pro-Tyr-Ile-Leu Tris(hydrotrifluoroacetate)] | 1.3 ± 0.1 nM | high stability; also recorded: very slow degradation observable after 24 h | > 50% | > 99% | > 99% | > 99% | 86 ± 4% | 58 ± 5% |
| CCC(=O)NCCCCNC(=O)NC(=N)NCCC[C@H](NC(=O)[C@@H]1CCCN1C(=O)[C@@H](NC(=O)CCc1cn(CCCNC(=O)CCC#Cc2ccc3c(c2)C(C)(C)C2=C4C=C5C6=[N+](CCC5OC4CCN23)c2ccc(S(=O)(=O)[O-])cc2C6(C)C)nn1)C1CCNCC1)C(=O)N[C@@H](CCCNC(=N)N)C(=O)N1CCC[C@H]1C(=O)N[C@H](C(=O)N[C@H](C(=O)N[C@@H](CC(C)C)C(=O)O)[C@@H](C)CC)C(C)(C)c1ccc(O)cc1 (stereo partly drawn) [Compound 18, N^α-(3-(N-(1-(8-Sulfonato-5,5,27,27-tetramethyl-16-oxa-20-aza-12-azoniaheptacyclo[15.11.0.03,15.04,12.06,11.020,28.021,26]octacosa-1(28),2,4(12),6(11),7,9,21(26),22,24-nonaen-24-yl)-5-oxopentyn-5-yl)-1-aminoprop-3-yl-1H-1,2,3-triazol-4-yl)propanoyl)-2-(piperidin-4-yl)-Gly-Pro-N^ω-[(4-(N-propanoyl)aminobutyl)aminocarbonyl]Arg-Arg-Pro-β,β-dimethyl-L-Tyr-Ile-Leu Tris(hydrotrifluoroacetate)] | 1.5 ± 0.1 nM | highly stable over 48 h; also recorded: no decomposition | > 50% | – | 95 ± 6% | 90 ± 6% | 82 ± 4% | 52 ± 4% |
